Measured values as given in patent US10105319B2 (Murray and Poole Enterprises Limited, priority 2013, dated 2018).

Key:
[1] = test system: patients with clinically stable coronary disease; assay: LoDoCo Trial: colchicine 0.5 mg/day added to standard secondary prevention; assay type: in vivo, human
Experimental: This study is described in PCT/AU2013/001261 and is hereby incorporated in its entirety by reference.
All outcomes were evaluated by an experienced adjudicator blinded to the treatment allocation.
Patients with a history of bypass surgery were only eligible if they had undergone bypass surgery more than 10 years before, or had angiographic evidence of graft failure or had undergone stenting since their bypass surgery. All patients signed informed consent before randomization.
The randomization sequence was computer generated, kept concealed from the investigators at all times and was managed by a research assistant who had no involvement in the evaluation or management of study patients. […] Patients who were intolerant to therapy remained in the study, and were followed in the usual manner and included in the primary intention to treat analysis.
The drug was dispensed by their usual chemist, and if requested, patients were reimbursed for the cost of these scripts. All other treatments were continued as usual.
Patient compliance with treatment and outcome data were collected at routine follow up visits and at the time of any unplanned hospital admission. An acute coronary syndrome (ACS) was defined as either (a) Acute Myocardial Infarction (AMI), as evidenced by acute ischemic chest pain associated with a rise in serum troponin above the upper limit of normal or (b) Unstable Angina (UA), as evidenced by a recent acceleration of the patient's angina unassociated with a rise in serum troponin but associated with angiographic evidence of a change in the patient's coronary anatomy. (Unstable Angina Braunwald classification types IB and IIB). The ACS was characterized as being stent-related if there was evidence of significant in-stent stenosis or acute stent thrombosis. Out of Hospital Cardiac Arrest was defined as either a sudden death as evidenced on the patient's death certificate, or a non-fatal out of hospital cardiac arrest, defined as a recovery from sudden collapse associated with documented asystole, ventricular tachycardia or ventricular fibrillation. Noncardioembolic ischemic stroke was defined as CT or MRI proven ischemic stroke adjudged by the treating neurologist as not being due to atrial fibrillation or intracranial hemorrhage.
The primary efficacy outcome was the composite, ACS, fatal or non-fatal out of hospital cardiac arrest or non-cardio-embolic ischemic stroke. Secondary outcomes were (a) individual components of the primary outcome, and (b) the components of ACS unrelated to stent disease.
The pre-specified study duration was a minimum follow up of two years in all patients. Accordingly the study was closed on May 31, 2012. During May, all living patients were contacted by phone to collect compliance and outcome data from the last date of follow-up.
Summary statistics, including mean and standard deviation were calculated for all baseline characteristics by treatment arm. All time to event outcomes were calculated in days by subtracting the date of randomization from either: (1) the date of event or death; or (2) the trial termination date for those patients not experiencing the defined event. As pre-specified, the primary efficacy analysis was based on the intention-to-treat principle. The intention-to-treat analysis included all randomized subjects and all events during the time from randomization to the trial termination. Trial termination date was fixed as May 31, 2012. A secondary pre-specified on-treatment analysis was also performed, based on patients who were both tolerant and compliant to therapy beyond the first month of randomization.
The time-to-first-event for all outcomes is presented using a Kaplan-Meier plot. […] The secondary outcomes were analysed similarly.

[2] = test system: patients with a first episode of acute pericarditis; conditions: at 18 months; conventional treatment plus colchicine 0.5 to 1.0 mg/day for 3 months; p=0.004; cited from earlier work
[3] = test system: patients with a first episode of recurrent pericarditis; conditions: at 18 months; conventional treatment plus colchicine 0.5-1.0 mg/d for 6 months; cited from earlier work
[4] = test system: patients with clinically stable coronary disease; conditions: 0.5 mg/day in addition to statins; Nidorf et al., JACC 2013; cited from earlier work

For COc1cc2c(c(OC)c1OC)-c1ccc(OC)c(=O)cc1[C@@H](NC(C)=O)CC2 [colchicine, N[5,6,7,9-tetrahydro-1,2,3,10-tetratmethoxy 9-oxobenzo[a]heptalen-7-yl],(S)-acetamide], the “patients with AMI (ACS unrelated to stent disease)” value ([1]; 0.5 mg/day, 4/282) was 1.4%, the “patients with UA (ACS unrelated to stent disease)” value ([1]; 0.5 mg/day, 5/282) was 1.8% and the “patients with an ACS unrelated to stent disease” value ([1]; 0.5 mg/day, 9/282) was 3.2%. The “patients presenting with an ACS” value ([1]; 0.5 mg/day, 13/282) was 4.6%, the “patients with primary outcome (ACS, out of hospital cardiac arrest or non-cardio-embolic ischemic stroke)” value ([1]; 0.5 mg/day, intention to treat, 15/282, median follow up 36 months) was 5.3% and the “patients reporting early intolerance due to gastrointestinal side effects” value ([1]; 32 of 282 randomized to treatment) was 11%. The patients who died ([1]; colchicine group, all of non-cardiac causes, 10 in control group) was 4 patients, the “out of hospital cardiac arrest and non-cardio-embolic ischemic stroke” value ([1]; treatment group vs control) was “infrequent but were also reduced” and the recurrence rate [2] was 10.7%. For the same compound, the “recurrence rate (actuarial rate)” value [3] was 24.0% and the “prevention of cardiovascular events” value [4] was “appeared effective”.
